From patent US8383168B2, “Antioxidant complex, cosmetic and pharmaceutical compositions containing said complex and use of said complex” (Natura Cosmeticos S.A., priority 2008, dated 2013)

Key:
Format in all cases: biochemical
[1] = DPPH free radical neutralization; conditions: amount required to neutralize 50% of DPPH radicals
Excerpt: This methodology is used to assess the IC-50 value, i.e., the amount of active ingredient required to neutralize 50% of the radicals formed in the reaction medium.
This assay is used to assess the active ingredient's ability to decrease the formation of free radicals. A specific radical (DPPH) produces a purple coloring in ethanolic solution. Antioxidant active ingredients capable of donating protons (H^+) decrease the formation of radicals, consequently decreasing the purple coloring.

[2] = Lipoperoxidation (liposomes + AAPH, xylenol orange); conditions: for protection against lipoperoxidation: active ingredient alone, 100 μg/ml (0.01%), 3 hours of reaction
Excerpt: The methodologies selected for planning and carrying out the tests for the antioxidant efficacy of the complex of the present invention aimed at reproducing the protective effect of membranes (lipids), DNA and proteins, and were fast screening methodologies, such as: • DPPH: the test is based on the reduction reaction of the diphenyl picryl hydrazyl (DPPH) free radical in ethanolic medium, with the raw materials or substances to be analyzed, wherein the DPPH radical is reduced by said substances, altering the tone and enabling the antioxidant protection to be measured. This is a simple assay, commonly used for screening substances, since it measures one of the main mechanisms of antioxidant action—proton donation for stabilization of the DPPH radical. • Lipoperoxidation: in this test, phosphatidylcholine liposomes, which structure resembles the cell membrane since phosphatidylcholine is one of the lipid components of cell membranes, are incubated with the AAPH radical, which is capable of promoting the oxidation of these membranes, forming lipid hydroperoxides. These hydroperoxides promote the oxidation of Fe^2+ to Fe^3+, which reacts with xylenol orange, forming a yellowish compound. The active ingredients incubated with the liposomes decrease the membrane oxidation, consequently decreasing the reaction with xylenol orange and the formation of color. This test provides a result for the % protection against lipoperoxidation, and is closer to the physiological situation, since it mimics the attack to cell membranes. • Protein Oxidation: this experiment uses BSA (bovine serum albumine) as a substrate and a hydroxyl radical generating system (Fenton reaction: H2O2+ iron), which can generate hydroperoxides in the presence of the protein, due to the oxidation of the amino acid side chain. These hydroperoxides promote the oxidation of Fe2+ to Fe3+, which reacts with xylenol orange, forming a yellowish compound. […]

[3] = ORAC hydrophilic and lipophylic method; conditions: value printed for comparison with the samples
Method: The system comprises a generating substance of free radical, the AAPH (2,2′-azobis (2-amidinopropane)dihydrochloride) and a fluorescent marker, fluorescein. The antioxidant substance presence in the reaction medium inhibits the decline of the induced fluorescence by the free radical.
The final value is calculated by the regression equation between the sample concentration and the area under the decline curve of fluorescence (AUC). Being expressed the result in micromoles equivalent of Trolox®/g of the sample. AUC=1+f1/f0+f2/f0++f3/f0+ . . . +fn/f0 • f0: initial fluorescence t=0 minutes • fn: fluorescence in each sample in t=n minutes
Hexane (1 mg/mL) was added in the individual samples, the samples were agitated during 3 minutes in vortex and centrifuged during two minutes in 700 g. The supernatant was removed, evaporated under nitrogen flow and analyzed as lipophylic portion. The soil body was analyzed as hydrophilic fraction.
The latter was solubilized in acetone:water (50% v/v), mixed in the ratio indicated for each one of the mixtures and appropriately diluted in 75 nM phosphate buffer pH 7.0. […] The reading was made each minute for one hour with wave length of excitement 485/20 nm and emission 528/20 nm (reading of plates—Multi Detection microplate reader SynergyBIOTEK). […]

SMILES | IC-50 (mg/ml) [1] [mg/mL] | IC-50 (μg/ml) [1] [µg/mL] | protection against lipoperoxidation [2] [%] | concentration of the active ingredient in isolation required for protection similar to the mixture, relative to its concentration in the mixture ([2]; lipoperoxidation, between 60 and 70% protection, mixture 10+10+10 μg/ml) | antioxidant activity of comparator [3] [µmol/g]
CC(C)=CCC/C(C)=C/C=C/C(C)=C/C=C/C(C)=C/C=C/C=C(C)/C=C/C=C(C)/C=C/C=C(\C)CCC=C(C)C [Lycopene] | 0.208 | 208 | 25.30 |  | 
Cc1c(C)c2c(c(C)c1O)CC[C@@](C)(CCC[C@H](C)CCC[C@H](C)CCCC(C)C)O2 [Tocopherol, alpha-tocopherol] | 0.019 | 19 | 95.53 | at least 5 times higher | 
Cc1c(C)c2c(c(C)c1O)CCC(C)(C(=O)O)O2 (centres unmarked) [Trolox®] |  |  |  |  | 400
